Data on two compounds can be found in ChEMBL document CHEMBL6114992, “Design, synthesis, biological evaluation, and mechanism of action of new pyrazines as anticancer agents in vitro and in vivo” (Bioorg Med Chem, 2025).

SMILES strings stand for the structures. Calls of active or inactive are those of the source. The calls are words filed in the database; no cut-off is given here.

For assay [1], the system named is SK-OV-3. Kind of assay: Downregulation of TAZ expression in human SK-OV-3 cells incubated for 48 hrs by Western blot analysis. It counts as functional, cell-based. The following applies: dose 0.5-2.5 µM.
Assay [2] has as its system KG-1. Kind of assay: Downregulation of Bcl-XL expression in human KG-1 cells incubated for 48 hrs by Western blot analysis. It is filed as functional, cell-based. Particulars: dose 0.5-2.5 µM.
Assay [3] has as its system U-937. Briefly: Induction of apoptosis in human U-937 cells assessed as viable cells at 0.5 uM incubated for 48 hrs by Annexin V-FITC/PI staining based flow cytometry (reference value: 93.30 %). It is filed as functional. Particulars: read-out: Activity. (In general: Flow cytometry measures light scatter and fluorescence of single cells or particles in a stream.)
Assay [4] relates to THP-1. Briefly: Downregulation of TAZ expression in human THP-1 cells incubated for 48 hrs by Western blot analysis. It is filed as functional, cell-based. The following applies: dose 0.5-2.5 µM. A general note: In western blotting, separated proteins are transferred to a membrane and probed.
Assay [5] deals with U-937. Briefly: Downregulation of Bcl-2 expression in human U-937 cells incubated for 48 hrs by Western blot analysis. It is filed as functional, cell-based.
Assay [6] relates to SK-OV-3. Kind of assay: Downregulation of GLI1 expression in human SK-OV-3 cells incubated for 48 hrs by Western blot analysis. It is filed as functional, cell-based. Particulars: dose 1-5 µM.
Assay [7] relates to U-937. Kind of assay: Induction of apoptosis in human U-937 cells assessed as necrotic cells at 0.5 uM incubated for 48 hrs by Annexin V-FITC/PI staining based flow cytometry (reference value: 2.03 %). It counts as functional.
The subject of assay [8] is U-937. Kind of assay: Downregulation of XIAP expression in human U-937 cells incubated for 48 hrs by Western blot analysis. It counts as functional, cell-based.
Assay [9] addresses Signal transducer and activator of transcription 3 (Homo sapiens) (UniProt P40763). Kind of assay: Inhibition of STAT3 phosphorylation in human U-937 cells at 0.5 to 2.5 uM incubated for 48 hrs by Western blot analysis. It is filed as cell-based. The following applies: dose 0.5-2.5 µM.
In assay [10] the test system is SK-OV-3. Kind of assay: Antitumor activity against human SK-OV-3 cells xenografted in nude mouse assessed as reduction cell proliferation at 30 to 60 mg/kg, ip qd treated for 14 days by Ki67 staining based IHC analysis. The following applies: dose 30-60 mg/kg, time 14.0 day. It counts as functional, organism-based.

Chain of Signal transducer and activator of transcription 3 (Homo sapiens) (P40763 whole entry): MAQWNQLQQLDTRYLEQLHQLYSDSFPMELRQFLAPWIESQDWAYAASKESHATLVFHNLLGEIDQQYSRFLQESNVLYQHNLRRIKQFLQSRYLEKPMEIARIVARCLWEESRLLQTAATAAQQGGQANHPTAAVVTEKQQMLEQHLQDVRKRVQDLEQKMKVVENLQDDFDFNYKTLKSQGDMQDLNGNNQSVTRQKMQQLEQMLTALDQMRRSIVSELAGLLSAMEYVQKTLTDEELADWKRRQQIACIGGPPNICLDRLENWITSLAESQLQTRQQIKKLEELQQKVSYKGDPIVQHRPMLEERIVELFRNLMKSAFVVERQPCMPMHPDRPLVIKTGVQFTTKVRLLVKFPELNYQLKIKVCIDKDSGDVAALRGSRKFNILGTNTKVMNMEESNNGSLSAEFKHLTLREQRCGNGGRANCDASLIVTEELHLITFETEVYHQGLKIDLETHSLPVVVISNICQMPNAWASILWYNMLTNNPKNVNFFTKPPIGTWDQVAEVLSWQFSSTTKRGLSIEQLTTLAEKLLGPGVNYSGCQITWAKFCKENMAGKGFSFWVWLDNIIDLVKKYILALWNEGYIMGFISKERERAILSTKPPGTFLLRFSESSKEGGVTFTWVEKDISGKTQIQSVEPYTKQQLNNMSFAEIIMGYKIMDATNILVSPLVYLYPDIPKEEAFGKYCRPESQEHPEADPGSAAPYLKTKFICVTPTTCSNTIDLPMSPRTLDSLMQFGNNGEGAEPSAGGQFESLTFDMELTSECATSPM

Turning to `CCc1nccnc1C(=O)/C=C/c1ccccn1`, the Activity result in assay [1] and in [2] was “Dose-dependent-effect” throughout.

Take `Cc1nccnc1C(=O)/C=C/c1cccc(C#N)c1`: in assay [3], the viability at 0.5 µM stood at 80.9%. For the same compound, the Activity result in assay [4] was “Dose-dependent-effect”; in [5] it was “Dose-dependent-effect”; in assay [6], “Dose-dependent-effect”; in [7] it was 2.64%; in assay [8], “Dose-dependent-effect”. The inhibition entry in assay [9] is “Active”. Further, in assay [10], the result was Active.
